Measured values: patent publication US20230019491A1, “PYRIMIDINE TBK/IKKe INHIBITOR COMPOUNDS AND USES THEREOF” (Merck Patent GmbH, priority 2017, published 2023)

Experiments:
TBK1 = molecular target: T1, TBK1 (Homo sapiens, UniProt Q9UHD2); assay: TBK biochemical assay; settings: 10 point 1:4 dose response, 30 uM top concentration, 90 min at 25° C., LabChip EZ Reader II; read-out: TBK1_IC50
T1 sequence (Q9UHD2 1-729): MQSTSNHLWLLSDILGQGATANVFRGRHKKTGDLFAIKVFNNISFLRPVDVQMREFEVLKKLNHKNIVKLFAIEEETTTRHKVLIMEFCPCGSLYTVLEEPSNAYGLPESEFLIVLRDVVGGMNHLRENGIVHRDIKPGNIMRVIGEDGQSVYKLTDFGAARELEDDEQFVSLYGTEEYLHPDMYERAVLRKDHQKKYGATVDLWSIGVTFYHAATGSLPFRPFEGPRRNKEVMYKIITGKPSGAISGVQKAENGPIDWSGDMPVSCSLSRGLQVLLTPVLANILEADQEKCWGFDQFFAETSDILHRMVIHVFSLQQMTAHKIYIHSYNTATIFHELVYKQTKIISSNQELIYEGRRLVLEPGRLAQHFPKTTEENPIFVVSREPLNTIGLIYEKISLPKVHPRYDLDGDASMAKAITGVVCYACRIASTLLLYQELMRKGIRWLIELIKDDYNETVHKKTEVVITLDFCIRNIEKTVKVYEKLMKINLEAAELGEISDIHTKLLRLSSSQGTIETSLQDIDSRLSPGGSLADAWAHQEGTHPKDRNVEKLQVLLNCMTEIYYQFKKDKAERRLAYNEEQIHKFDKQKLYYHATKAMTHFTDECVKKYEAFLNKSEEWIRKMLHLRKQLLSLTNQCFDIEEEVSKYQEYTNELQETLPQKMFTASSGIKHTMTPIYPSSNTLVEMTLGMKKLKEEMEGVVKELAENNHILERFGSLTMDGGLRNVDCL
How it was run: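 Read-out was a Caliper LabChip mobility-shift assay, run after a 90-min, 25 °C reaction of TBK1 with substrate and compounds, quenched with stop buffer. Control wells received staurosporine at 10 uM final.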

IKKε = molecular target: T2, IKKε (Homo sapiens, UniProt Q14164); assay: IKKε biochemical assay; settings: 10 point 1:4 dose response, 30 uM top concentration, 90 min at 25° C., LabChip EZ Reader II; read-out: IKKε_IC50
T2 sequence (Q14164 1-716): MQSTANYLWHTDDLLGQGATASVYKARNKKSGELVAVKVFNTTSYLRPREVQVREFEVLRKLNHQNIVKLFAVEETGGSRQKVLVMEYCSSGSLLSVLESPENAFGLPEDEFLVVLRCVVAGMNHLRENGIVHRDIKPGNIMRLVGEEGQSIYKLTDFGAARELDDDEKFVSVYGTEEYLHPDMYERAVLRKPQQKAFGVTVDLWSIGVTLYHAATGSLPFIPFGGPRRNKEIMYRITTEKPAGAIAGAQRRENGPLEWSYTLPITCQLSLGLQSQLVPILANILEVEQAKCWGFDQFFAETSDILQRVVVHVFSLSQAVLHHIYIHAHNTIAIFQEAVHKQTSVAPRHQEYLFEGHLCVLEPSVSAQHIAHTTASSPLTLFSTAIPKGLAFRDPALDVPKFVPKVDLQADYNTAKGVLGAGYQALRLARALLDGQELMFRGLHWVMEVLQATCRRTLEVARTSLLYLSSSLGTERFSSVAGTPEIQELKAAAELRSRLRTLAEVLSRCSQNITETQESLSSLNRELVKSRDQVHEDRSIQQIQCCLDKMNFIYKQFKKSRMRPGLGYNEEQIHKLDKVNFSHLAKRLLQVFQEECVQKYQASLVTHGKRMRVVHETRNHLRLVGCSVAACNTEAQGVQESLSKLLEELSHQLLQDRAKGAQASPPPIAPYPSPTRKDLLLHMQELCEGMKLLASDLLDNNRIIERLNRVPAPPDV
How it was run: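 Mobility-shift LabChip read-out followed a 90 min, 25° C. reaction of IKKε with substrate and test compound, with DMSO held at 1% final. Reactions were ended with stop buffer. Wells with 10 uM final staurosporine defined complete inhibition, and DMSO-only wells the uninhibited level.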

Structure (SMILES) | IC50 (TBK1) [µM] | IC50 (IKKε) [µM]
C[C@@H](O)C(=O)N1CCC(Oc2ccc(-c3ccnc(Nc4ccccn4)n3)cc2C#N)C(F)(F)C1 (stereo partly drawn) [Example 221, 2-[3,3-Difluoro-1-((R)-2-hydroxy-propionyl)-piperidin-4-yloxy]-5-[2-(pyridin-2-ylamino)-pyrimidin-4-yl]-benzonitrile] | 0.1 to 1 | 0.1 to 1
N#Cc1cc(-c2ccnc(Nc3cccc(C4CCN(C5COC5)CC4)c3)n2)ccc1OC1CCNCC1(F)F (centres unmarked) [Example 222, 2-(3,3-Difluoro-piperidin-4-yloxy)-5-{2-[3-(1-oxetan-3-yl-piperidin-4-yl)-phenylamino]-pyrimidin-4-yl}-benzonitrile] | < 0.1 | < 0.1
C[C@H](O)C(=O)N1CCC(Oc2ccc(-c3ccnc(Nc4cccc(C5CCN(C6COC6)CC5)c4)n3)cc2C#N)C(F)(F)C1 (stereo partly drawn) [Example 224, 2-[3,3-Difluoro-1-((S)-2-hydroxy-propionyl)-piperidin-4-yloxy]-5-{2-[3-(1-oxetan-3-yl-piperidin-4-yl)-phenylamino]-pyrimidin-4-yl}-benzonitrile] | < 0.1 | < 0.1
C[C@@H](O)C(=O)N1CCC(Oc2ccc(-c3ccnc(Nc4ccc(C5CCN(C6COC6)CC5)cc4)n3)cc2C#N)C(F)(F)C1 (stereo partly drawn) [Example 226, 2-([33-difluoro-1-[(2R)-2-hydroxypropanoyl]piperidin-4-yl]oxy)-5-[2-([4-[1-(oxetan-3-yl)piperidin-4-yl]phenyl]amino)pyrimidin-4-yl]benzonitrile] | < 0.1 | < 0.1
CCOc1cc(Nc2nccc(-c3ccc(OC4CCN(C(=O)[C@H](C)O)CC4(F)F)c(C#N)c3)n2)ccc1N1CCN(C2COC2)CC1 (stereo partly drawn) [Example 229, 2-([3,3-difluoro-1-[(2S)-2-hydroxypropanoyl]piperidin-4-yl]oxy)-5-[2-([3-ethoxy-4-[4-(oxetan-3-yl)piperazin-1-yl]phenyl]amino)pyrimidin-4-yl]benzonitrile] | < 0.1 | < 0.1
COc1cc(Nc2nccc(-c3ccc(O[C@H]4CCN(C(=O)[C@@H](C)O)CC4(F)F)c(C#N)c3)n2)ccn1 [Example 230, 2-((S)-3,3-difluoro-1-((R)-2-hydroxypropanoyl)piperidin-4-yloxy)-5-(2-(2-methoxypyridin-4-ylamino)pyrimidin-4-yl)benzonitrile] | 0.1 to 1 | < 0.1
COc1cc(Nc2nccc(-c3ccc(O[C@@H]4CCN(C(=O)[C@@H](C)O)CC4(F)F)c(C#N)c3)n2)ccn1 [Example 231, 2-((R)-3,3-difluoro-1-((R)-2-hydroxypropanoyl)piperidin-4-yloxy)-5-(2-(2-methoxypyridin-4-ylamino)pyrimidin-4-yl)benzonitrile] | < 0.1 | < 0.1
COc1nccc(Nc2nccc(-c3ccc(OC4CCNCC4(F)F)c(C#N)c3)n2)n1 (centres unmarked) [Example 232, 2-(3,3-Difluoro-piperidin-4-yloxy)-5-[2-(2-methoxy-pyrimidin-4-ylamino)-pyrimidin-4-yl]-benzonitrile] | 0.1 to 1 | 0.1 to 1
COc1nc(Nc2nccc(-c3ccc(OC4CCN(C(=O)[C@@H](O)C(C)C)CC4(F)F)c(C#N)c3)n2)ccc1C1CCN(C2COC2)CC1 (stereo partly drawn) [Example 236, 2-[3,3-Difluoro-1-((S)-2-hydroxy-3-methyl-butyryl)-piperidin-4-yloxy]-5-[2-(2-methoxy-1′-oxetan-3-yl-1′,2′,3′,4′,5′,6′-hexahydro-[3,4′]bipyridinyl-6-ylamino)-pyrimidin-4-yl]-benzonitrile] | < 0.1 | < 0.1
COc1nc(Nc2nccc(-c3ccc(OC4CCN(C(=O)C5(O)CC5)CC4(F)F)c(C#N)c3)n2)ccc1C1CCN(C2COC2)CC1 (centres unmarked) [Example 237, 2-[3,3-Difluoro-1-(1-hydroxy-cyclopropanecarbonyl)-piperidin-4-yloxy]-5-[2-(2-methoxy-1′-oxetan-3-yl-1′,2′,3′,4′,5′,6′-hexahydro-[3,4′]bipyridinyl-6-ylamino)-pyrimidin-4-yl]-benzonitrile] | < 0.1 | < 0.1

Next, values leading:

IC50 (TBK1) [µM] | IC50 (IKKε) [µM] | Structure (SMILES)
< 0.1 | < 0.1 | N#Cc1cc(-c2ccnc(Nc3ccccn3)n2)ccc1OC1CCN(C(=O)CO)CC1(F)F (centres unmarked) [Example 220, 2-[3,3-Difluoro-1-(2-hydroxy-acetyl)-piperidin-4-yloxy]-5-[2-(pyridin-2-ylamino)-pyrimidin-4-yl]-benzonitrile]
< 0.1 | < 0.1 | N#Cc1cc(-c2ccnc(Nc3cccc(C4CCN(C5COC5)CC4)c3)n2)ccc1OC1CCN(C(=O)CO)CC1(F)F (centres unmarked) [Example 223, 2-[3,3-Difluoro-1-(2-hydroxy-acetyl)-piperidin-4-yloxy]-5-{2-[3-(1-oxetan-3-yl-piperidin-4-yl)-phenylamino]-pyrimidin-4-yl}-benzonitrile]
< 0.1 | < 0.1 | C[C@@H](O)C(=O)N1CCC(Oc2ccc(-c3ccnc(Nc4cccc(C5CCN(C6COC6)CC5)c4)n3)cc2C#N)C(F)(F)C1 (stereo partly drawn) [Example 225, 2-[3,3-Difluoro-1-((R)-2-hydroxy-propionyl)-piperidin-4-yloxy]-5-{2-[3-(1-oxetan-3-yl-piperidin-4-yl)-phenylamino]-pyrimidin-4-yl}-benzonitrile]
< 0.1 | < 0.1 | COc1cc(Nc2nccc(-c3ccc(OC4CCN(C(=O)[C@@H](C)O)CC4(F)F)c(C#N)c3)n2)ccc1C1CCN(C2COC2)CC1 (stereo partly drawn) [Example 227, 2-([3,3-difluoro-1-[(2R)-2-hydroxypropanoyl]piperidin-4-yl]oxy)-5-[2-([3-methoxy-4-[1-(oxetan-3-yl)piperidin-4-yl]phenyl]amino)pyrimidin-4-yl]benzonitrile]
< 0.1 | < 0.1 | COc1cc(N2CCN(C3COC3)CC2)ccc1Nc1nccc(-c2ccc(OC3CCN(C(=O)[C@H](C)O)CC3(F)F)c(C#N)c2)n1 (stereo partly drawn) [Example 228, 2-([33-difluoro-1-[(2S)-2-hydroxypropanoyl]piperidin-4-yl]oxy)-5-[2-([2-methoxy-4-[4-(oxetan-3-yl)piperazin-1-yl]phenyl]amino)pyrimidin-4-yl]benzonitrile]
< 0.1 | < 0.1 | COc1nccc(Nc2nccc(-c3ccc(OC4CCN(C(=O)[C@H](C)O)CC4(F)F)c(C#N)c3)n2)n1 (some centres unmarked) [Example 233]
< 0.1 | < 0.1 | COc1nc(Nc2nccc(-c3ccc(OC4CCN(C(=O)CO)CC4(F)F)c(C#N)c3)n2)ccc1C1CCN(C)CC1 (stereo not drawn) [Example 234, 2-[[3,3-difluoro-1-(2-hydroxyacetyl)piperidin-4-yl]oxy]-5-(2-[[6-methoxy-5-(l-methylpiperidin-4-yl)pyridin-2-yl]amino]pyrimidin-4-yl)benzonitrile]
0.1 to 1 | 0.1 to 1 | COc1nc(Nc2nccc(-c3ccc(O[C@@H]4CCNC[C@@H]4F)c(C#N)c3)n2)ccc1C1CCN(C2COC2)CC1 [Example 235, 2-((3S,4R)-3-Fluoro-piperidin-4-yloxy)-5-[2-(2-methoxy-1′-oxetan-3-yl-1′,2′,3′,4′,5′,6′-hexahydro-[3,4′]bipyridinyl-6-ylamino)-pyrimidin-4-yl]-benzonitrile]
0.1 to 1 | 0.1 to 1 | COc1nc(Nc2nccc(-c3ccc(OC4CCN(C(=O)[C@H](O)C(C)C)CC4(F)F)c(C#N)c3)n2)ccc1C1CCN(C2COC2)CC1 (stereo partly drawn) [Example 238, 2-[3,3-Difluoro-1-((R)-2-hydroxy-3-methyl-butyryl)-piperidin-4-yloxy]-5-[2-(2-methoxy-1′-oxetan-3-yl-1′,2′,3′,4′,5′,6′-hexahydro-[3,4′]bipyridinyl-6-ylamino)-pyrimidin-4-yl]-benzonitrile]
